From ChEMBL document CHEMBL1909046, “DrugMatrix in vitro pharmacology data” come the findings set out here.

The target of test [1] is Beta-2 adrenergic receptor (Homo sapiens, UniProt P07550). Put plainly: DRUGMATRIX: Adrenergic beta2 radioligand binding (ligand: [3H] CGP-12177). It is filed as cell membranes, CHO, Membrane. Particulars: cho; Not Active = under 50% inhibition at 10 µM.
Test [2] can be described thus: DRUGMATRIX: Serotonin (5-Hydroxytryptamine) 5-HT3 radioligand binding (ligand: [3H] GR-65630). The test is classed as cell membranes, Membrane. The settings on record: hek293; Not Active = under 50% inhibition at 10 µM.
In a further test the target is T1, Substance-K receptor (Homo sapiens, UniProt P21452). Further: in other assays of this panel Not Active means under 50% inhibition at 10 µM.
T1 sequence (P21452 whole entry): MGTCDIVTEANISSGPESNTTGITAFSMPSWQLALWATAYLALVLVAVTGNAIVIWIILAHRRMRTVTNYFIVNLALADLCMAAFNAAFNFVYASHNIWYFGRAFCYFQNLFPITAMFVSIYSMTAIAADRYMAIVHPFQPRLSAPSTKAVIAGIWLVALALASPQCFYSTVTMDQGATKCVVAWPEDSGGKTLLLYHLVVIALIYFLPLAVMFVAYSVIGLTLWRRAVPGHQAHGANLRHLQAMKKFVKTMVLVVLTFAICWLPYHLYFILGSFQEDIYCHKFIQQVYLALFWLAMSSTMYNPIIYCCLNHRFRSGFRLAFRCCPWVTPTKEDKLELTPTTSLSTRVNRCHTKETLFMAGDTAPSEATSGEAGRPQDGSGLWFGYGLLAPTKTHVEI
It is filed as cell membranes, CHO, Membrane. Particulars: cho.

For another test, the target named is Glycine receptor (Rattus norvegicus, UniProt P22771+P24524+P07727+P20781). The test is classed as cell membranes, Wistar, Spinal cord, Membrane. Further: in other assays of this panel Not Active means under 50% inhibition at 10 µM.
In a further test the target is Nitric oxide synthase 1 (Rattus norvegicus, UniProt P29476). It is filed as tissue-based, Cerebellum. Further: in other assays of this panel Not Active means under 50% inhibition at 10 µM.
A short description of test [3]: DRUGMATRIX: Phosphodiesterase PDE3 enzyme inhibition (substrate: [3H]cAMP + cAMP). It is filed as tissue-based, Homo sapiens. The settings on record: platelet, Not Active = under 50% inhibition at 10 µM.

Chain of Nitric oxide synthase 1 (P29476 whole entry): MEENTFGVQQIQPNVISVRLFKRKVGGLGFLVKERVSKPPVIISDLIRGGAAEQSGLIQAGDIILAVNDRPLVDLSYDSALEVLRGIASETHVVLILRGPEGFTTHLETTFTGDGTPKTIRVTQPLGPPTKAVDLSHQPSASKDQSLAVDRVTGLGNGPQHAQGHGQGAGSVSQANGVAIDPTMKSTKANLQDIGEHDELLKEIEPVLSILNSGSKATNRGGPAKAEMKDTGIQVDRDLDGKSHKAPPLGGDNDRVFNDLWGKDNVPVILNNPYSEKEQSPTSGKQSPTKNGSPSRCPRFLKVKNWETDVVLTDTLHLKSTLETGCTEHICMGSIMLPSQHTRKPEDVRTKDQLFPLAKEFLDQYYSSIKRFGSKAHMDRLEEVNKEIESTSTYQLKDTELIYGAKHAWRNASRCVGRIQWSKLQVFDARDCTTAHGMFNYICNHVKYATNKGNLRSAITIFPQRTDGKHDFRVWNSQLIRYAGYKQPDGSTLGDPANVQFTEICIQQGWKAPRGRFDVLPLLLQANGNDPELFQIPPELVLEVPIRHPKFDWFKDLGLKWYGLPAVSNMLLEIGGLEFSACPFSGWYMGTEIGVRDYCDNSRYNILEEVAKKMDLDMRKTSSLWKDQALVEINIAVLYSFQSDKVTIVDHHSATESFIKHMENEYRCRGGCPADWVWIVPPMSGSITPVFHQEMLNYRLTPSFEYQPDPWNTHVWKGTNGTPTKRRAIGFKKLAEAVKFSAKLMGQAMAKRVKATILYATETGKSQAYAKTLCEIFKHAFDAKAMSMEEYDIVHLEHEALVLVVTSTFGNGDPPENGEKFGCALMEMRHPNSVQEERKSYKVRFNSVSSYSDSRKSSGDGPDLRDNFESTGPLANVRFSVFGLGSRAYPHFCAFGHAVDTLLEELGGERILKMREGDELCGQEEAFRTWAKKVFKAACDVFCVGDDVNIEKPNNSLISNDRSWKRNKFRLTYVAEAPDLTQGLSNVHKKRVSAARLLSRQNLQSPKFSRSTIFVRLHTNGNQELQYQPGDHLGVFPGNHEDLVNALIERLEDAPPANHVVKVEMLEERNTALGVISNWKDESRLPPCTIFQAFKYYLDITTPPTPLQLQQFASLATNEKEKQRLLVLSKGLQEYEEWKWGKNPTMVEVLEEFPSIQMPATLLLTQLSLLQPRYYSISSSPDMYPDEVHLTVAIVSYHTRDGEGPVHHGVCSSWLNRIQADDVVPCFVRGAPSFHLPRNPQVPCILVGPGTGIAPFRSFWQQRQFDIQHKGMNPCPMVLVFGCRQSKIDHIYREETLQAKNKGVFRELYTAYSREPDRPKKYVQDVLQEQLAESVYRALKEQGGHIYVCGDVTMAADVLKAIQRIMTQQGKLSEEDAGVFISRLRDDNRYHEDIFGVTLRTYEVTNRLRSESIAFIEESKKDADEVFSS
Chain of Beta-2 adrenergic receptor (P07550 whole entry): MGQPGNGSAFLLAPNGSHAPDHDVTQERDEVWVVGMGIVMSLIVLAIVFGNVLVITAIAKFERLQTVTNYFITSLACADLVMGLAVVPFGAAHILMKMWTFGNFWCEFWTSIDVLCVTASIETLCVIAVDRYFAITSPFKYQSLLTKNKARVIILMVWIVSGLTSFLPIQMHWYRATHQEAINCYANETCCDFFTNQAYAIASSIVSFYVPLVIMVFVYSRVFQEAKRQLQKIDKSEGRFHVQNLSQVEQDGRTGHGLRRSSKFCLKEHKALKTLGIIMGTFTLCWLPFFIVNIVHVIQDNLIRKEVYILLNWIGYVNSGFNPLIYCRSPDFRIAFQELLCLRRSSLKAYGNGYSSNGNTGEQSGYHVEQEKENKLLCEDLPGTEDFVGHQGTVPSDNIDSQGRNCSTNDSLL

With `CO[C@@]12[C@H](COC(N)=O)C3=C(C(=O)C(C)=C(N)C3=O)N1C[C@@H]1N[C@@H]12` [MITOMYCIN], the IC50 entry (in test [1]; in test [2]; against Substance-K receptor; against Glycine receptor; on Nitric oxide synthase 1; in test [3]) was “Not Active” in each case. The Ki entry in test [2] and in test [3] was “Not Active” in each case.
For the compound `CCOc1cc(N)c(Cl)cc1C(=O)NCC1CN(Cc2ccc(F)cc2)CCO1` (stereo not given) [MOSAPRIDE], the IC50 result (in test [1]; in test [2]; at Substance-K receptor; on Glycine receptor; against Nitric oxide synthase 1; in test [3]) was “Not Active” each time. Further, the Ki result in test [2] and in test [3] was “Not Active” throughout.
With `CCN(CC)N=O` [N-NITROSODIETHYLAMINE], the IC50 result (in test [1]; in test [2]; against Substance-K receptor; against Glycine receptor; against Nitric oxide synthase 1; in test [3]) was “Not Active” each time. Further, the Ki result in test [2] and in test [3] was “Not Active” each time.
Regarding `O=C1CC[C@@]2(O)[C@H]3Cc4ccc(O)c5c4[C@@]2(CCN3CC2CC2)[C@H]1O5` [NALTREXONE], the IC50 result (in test [1]; in test [2]; against Substance-K receptor; against Glycine receptor; against Nitric oxide synthase 1; in test [3]) was “Not Active” in each case. The Ki result in test [2] and in test [3] was “Not Active” in each case.
With `Oc1ccc(/C=C/c2cc(O)cc(O)c2)cc1` [RESVERATROL], the IC50 result (in test [1]; in test [2]; at Substance-K receptor; against Glycine receptor; against Nitric oxide synthase 1; in test [3]) was “Not Active” in each case. Moreover, the Ki result in test [2] and in test [3] was “Not Active” throughout.
Consider `CC(N)C12CC3CC(CC(C3)C1)C2` (stereo not given) [RIMANTADINE], for which the IC50 entry (in test [1]; in test [2]; on Substance-K receptor; against Glycine receptor; on Nitric oxide synthase 1; in test [3]) was “Not Active” throughout. The Ki result in test [2] and in test [3] was “Not Active” throughout.
Consider `CS(=O)(=O)c1ccc(C2=C(c3ccccc3)C(=O)OC2)cc1` [ROFECOXIB], for which the IC50 entry (in test [1]; in test [2]; against Substance-K receptor; against Glycine receptor; on Nitric oxide synthase 1; in test [3]) was “Not Active” in each case. Further, the Ki result in test [2] and in test [3] was “Not Active” in each case.
As for `C=CCc1ccc2c(c1)OCO2` [SAFROLE], the IC50 result (in test [1]; in test [2]; at Substance-K receptor; against Glycine receptor; against Nitric oxide synthase 1; in test [3]) was “Not Active” each time. Further, the Ki result in test [2] and in test [3] was “Not Active” throughout.
Regarding `CCC(C)(C)C(=O)O[C@H]1C[C@@H](C)C=C2C=C[C@H](C)[C@H](CC[C@@H]3C[C@@H](O)CC(=O)O3)[C@H]21` [SIMVASTATIN], the 50% inhibitory concentration (IC50) entry (in test [1]; in test [2]; at Substance-K receptor; against Glycine receptor; against Nitric oxide synthase 1; in test [3]) was “Not Active” in each case. The Ki entry in test [2] and in test [3] was “Not Active” throughout.
For `O=[As][O-].[Na+]` [SODIUM ARSENITE], the IC50 entry (in test [1]; in test [2]; at Substance-K receptor; at Glycine receptor; at Nitric oxide synthase 1; in test [3]) was “Not Active” in each case. In addition, the Ki entry in test [2] and in test [3] was “Not Active” throughout.
`C1CCN2C[C@@H]3C[C@@H](CN4CCCC[C@@H]34)[C@H]2C1` [SPARTEINE]: the IC50 result (in test [1]; in test [2]; against Substance-K receptor; against Glycine receptor; against Nitric oxide synthase 1; in test [3]) was “Not Active” throughout. For the same compound, the Ki entry in test [2] and in test [3] was “Not Active” throughout.
With `C[C@]12CCC(=O)C[C@@H]1CC[C@@H]1[C@@H]2CC[C@]2(C)[C@@H](O)CC[C@@H]12` [STANOLONE], the half-maximal inhibitory concentration (IC50) entry (in test [1]; in test [2]; against Substance-K receptor; on Glycine receptor; at Nitric oxide synthase 1; in test [3]) was “Not Active” each time. In addition, the Ki result in test [2] and in test [3] was “Not Active” each time.
As to `Cc1cn([C@H]2C=C[C@@H](CO)O2)c(=O)[nH]c1=O` [STAVUDINE], the IC50 entry (in test [1]; in test [2]; on Substance-K receptor; on Glycine receptor; on Nitric oxide synthase 1; in test [3]) was “Not Active” throughout. Further, the Ki result in test [2] and in test [3] was “Not Active” throughout.
Regarding `CC1(C)[C@H](C(=O)O)N2C(=O)C[C@H]2S1(=O)=O` [SULBACTAM], the IC50 result (in test [1]; in test [2]; against Substance-K receptor; against Glycine receptor; at Nitric oxide synthase 1; in test [3]) was “Not Active” throughout. Besides, the Ki result in test [2] and in test [3] was “Not Active” each time.
As to `Cc1ccnc(NS(=O)(=O)c2ccc(N)cc2)n1` [SULFAMERAZINE], the IC50 entry (in test [1]; in test [2]; against Substance-K receptor; against Glycine receptor; on Nitric oxide synthase 1; in test [3]) was “Not Active” in each case. Also, the Ki result in test [2] and in test [3] was “Not Active” throughout.
As for `Cc1nnc(NS(=O)(=O)c2ccc(N)cc2)s1` [SULFAMETHIZOLE], the IC50 result (in test [1]; in test [2]; against Substance-K receptor; against Glycine receptor; against Nitric oxide synthase 1; in test [3]) was “Not Active” throughout. For the same compound, the Ki result in test [2] and in test [3] was “Not Active” in each case.
For the compound `O=C(O)c1cc(/N=N/c2ccc(S(=O)(=O)Nc3ccccn3)cc2)ccc1O` [SULFASALAZINE], the IC50 result (in test [1]; in test [2]; against Substance-K receptor; at Glycine receptor; against Nitric oxide synthase 1; in test [3]) was “Not Active” in each case. Further, the Ki entry in test [2] and in test [3] was “Not Active” in each case.
On to `CCN1CCCC1CNC(=O)c1cc(S(N)(=O)=O)ccc1OC` (stereo not given) [SULPIRIDE], for which the IC50 entry (in test [1]; in test [2]; against Substance-K receptor; at Glycine receptor; at Nitric oxide synthase 1; in test [3]) was “Not Active” each time. Besides, the Ki entry in test [2] and in test [3] was “Not Active” in each case.
`O=C(OC[C@H]1O[C@@H](OC(=O)c2cc(O)c(O)c(OC(=O)c3cc(O)c(O)c(O)c3)c2)[C@H](OC(=O)c2cc(O)c(O)c(OC(=O)c3cc(O)c(O)c(O)c3)c2)[C@@H](OC(=O)c2cc(O)c(O)c(OC(=O)c3cc(O)c(O)c(O)c3)c2)[C@@H]1OC(=O)c1cc(O)c(O)c(OC(=O)c2cc(O)c(O)c(O)c2)c1)c1cc(O)c(O)c(OC(=O)c2cc(O)c(O)c(O)c2)c1` [TANNIC ACID]: the IC50 entry in test [1] was “Not Active”; in test [2], “Not Active”; against Substance-K receptor, “Not Active”; against Glycine receptor, “Not Active”; against Nitric oxide synthase 1, “Not Active”; in test [3] (read-out: IC50), 714 nM. The Ki entry in test [2] is on record as “Not Active”.
For the compound `C#C[C@]1(O)CC[C@H]2[C@@H]3[C@H](C)CC4=C(CCC(=O)C4)[C@H]3CC[C@@]21C` [TIBOLONE], the IC50 entry (in test [1]; in test [2]; against Substance-K receptor; at Glycine receptor; at Nitric oxide synthase 1; in test [3]) was “Not Active” in each case. For the same compound, the Ki entry in test [2] and in test [3] was “Not Active” throughout.
For `Cc1cccc(C)c1NC(=O)C(C)N` (stereo not given) [TOCAINIDE], the IC50 result (in test [1]; in test [2]; at Substance-K receptor; at Glycine receptor; against Nitric oxide synthase 1; in test [3]) was “Not Active” each time. The Ki result in test [2] and in test [3] was “Not Active” in each case.
Regarding `Cc1ccc(S(=O)(=O)NC(=O)NN2CCCCCC2)cc1` [TOLAZAMIDE], the 50% inhibitory concentration (IC50) entry (in test [1]; in test [2]; against Substance-K receptor; against Glycine receptor; on Nitric oxide synthase 1; in test [3]) was “Not Active” throughout. Also, the Ki entry in test [2] and in test [3] was “Not Active” each time.

As usually defined, the IC50 is the concentration that gives 50% inhibition.
